Experimental data as given in PubChem BioAssay AID493130 (Broad Institute, 2011).
Results filed as inconclusive are left out. The source made the active and inactive calls.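 The calls were made as follows: active = signal-lowering compounds whose fitted half-maximal concentration is at most ten times their highest tested dose; inconclusive = flat fit between -30 and -70%, or poor fit; inactive = flat within 30%, signal rising, or potency beyond limit.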

biological target: POS-1 (Caenorhabditis elegans) binding to mex-3 RNA; experiment: inhibitors of POS-1/mex-3 RNA binding, dose response, counter-screen for MEX-5 RNA-binding inhibitor project, biochemical, fluorescence polarization, cherry-picked samples, set 2 (AID 493130); conditions: POS-1/mex-3 RNA fluorescence polarization, 1 h;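 also: POS-1 as maltose binding protein fusion made in E. coli with FITC RNA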

Row | Structure (SMILES) | AC50
1 | O=C(N/N=C/C1C(=O)NC(=S)N(c2ccccc2)C1=O)c1cc(Br)c(O)c(Br)c1 (stereo not drawn) | 7.64 µM
2 | CCN1/C(=C2\SC(=S)N(Cc3ccccc3)C2=O)Sc2ccccc21 | 1.6 µM
3 | O=C1C(Cl)=C(NC(=O)c2ccccc2)C(=O)C(Cl)=C1NC(=O)c1ccccc1 | 10.2 µM
4 | Cc1cc(C)c2c(c1)NC(C(=O)O)C1CC=CC21 (stereo not drawn) | 6.96 µM
5 | O=C(N/N=C/c1c(O)n(C2CC2)c(=S)[nH]c1=O)c1ccccc1O | 6.64 µM
6 | CC(=O)Nc1ccc(N2C(=O)c3cccc4c(O)ccc(c34)C2=O)cc1 | 1.41 µM
7 | C#CCN1C(=O)S/C(=C\c2cc3c(cc2OC)OCO3)C1=O | 8.97 µM
8 | Cc1ccc(NC(=O)/C(C#N)=C(\N)C(Cl)(Cl)Cl)nc1 | 6.68 µM
9 | Cc1cc(O)c(-c2cc(O)c(C)cc2O)cc1O | 10.1 µM
10 | C=CCn1c(=O)[nH]c2nc3cc(N=CN(C)C)c(C)cc3nc2c1=O | 7.27 µM
11 | CC1CC(=O)c2c(cc3c(-c4c(O)cc(O)c5c(O)c6c(cc45)OC(C)CC6=O)c(O)cc(O)c3c2O)O1 (stereo not drawn) | 8.29 µM

same assay, conditions: POS-1/mex-3 RNA fluorescence polarization, 1 h; at 10 µM (top of the series)

Row | Structure (SMILES) | activity change, negative = inhibition
12 | C#CCOCCOCCOCCNc1nc(N2CCN(C(=O)[C@H]([C@@H](C)CC)n3cc([C@@H](N)CO)nn3)CC2)nc(N2CCN(C(=O)[C@H]([C@@H](C)CC)n3cc([C@@H](N)CO)nn3)CC2)n1 | inactive
13 | CN(C)c1ccc(/C=C(\C#N)C(=O)c2ccccc2)cc1 | inactive
14 | Nc1ccc(Cc2ccc(N)c(C(=O)O)c2)cc1C(=O)O | inactive
15 | COc1ccc(/C=C/C(=O)c2cc(Cl)cc(Cl)c2O)c(OC)c1 | inactive
16 | CCCCn1c(N)c(N(CCOC)C(=O)c2ccc(Br)o2)c(=O)[nH]c1=O | inactive
17 | Cc1cc(C(=O)N/N=C/c2ccc(-c3ccc(C)c(Cl)c3)o2)n[nH]1 | inactive
18 | O=C(NNC(=O)c1ccccc1Cl)c1csc(N2CCOCC2)n1 | inactive
19 | NC(=O)C(=O)N/N=C1\CCc2ccccc21 | inactive
20 | COc1ccc(NC(=O)c2cccs2)cn1 | inactive
21 | O=C1N=c2ccccc2=C1c1sc(NS(=O)(=O)c2ccccc2)nc1O | inactive
22 | CCOC(=O)NC(=O)COC(=O)c1ccc(Sc2ncn[nH]2)c([N+](=O)[O-])c1 | inactive
23 | CC(=O)c1cc(NC(=O)c2ccc(C)cc2)c(=O)oc1C | inactive
24 | Cc1ccc(C)c(NC(=O)CCC(=O)NNC(=S)Nc2ccccc2)c1 | inactive
25 | CSCC(C)N1CCC(n2nccc2NC(=O)CCc2ccccc2)CC1 (stereo not drawn) | inactive
26 | O=C1OC(C(=O)O)Cc2ccccc21 (stereo not drawn) | inactive
27 | O=C(C[n+]1ccc(C(=O)N/N=C/c2ccc(OCc3ccccc3)cc2)cc1)c1ccccc1 | inactive
28 | O=[As](O)(O)c1ccc(N=Nc2ccc(O)cc2)cc1 | inactive
29 | O=C(CSc1nnc(COc2ccccc2)o1)Nc1nccs1 | inactive
30 | COc1cc(C(=O)NC(=S)NNC(=O)c2cnccn2)cc(OC)c1OC | inactive
31 | NC(=S)N=Nc1c(O)[nH]c2ccccc12 | inactive
32 | CCCCC1=CC2=C(c3ccco3)C(=O)C(C)(OC(=O)c3ccc(OC)cc3)C(=O)C2=CN1C(CO)CO (stereo not drawn) | inactive
33 | Cc1cc2ccccc2n1CCNC(=O)c1ccc(Br)o1 | inactive
34 | Cc1cc(C)c[n+](-c2[nH]c(=O)sc2/C=N/N=C(\N)[S-])c1 | inactive
35 | CC1CN(Cc2c(O)ccc3c2oc(=O)c2ccccc23)CC(C)O1 (stereo not drawn) | inactive

Row | Structure (SMILES) | activity change, negative = inhibition
36 | CN1C(=O)C(=Cc2sc(=O)n(-c3ccccc3)c2N(C)C)C(=O)N(C)C1=O | inactive
37 | Cc1cc(/C=C2\C(=O)NC(=O)N(c3cccc(Br)c3)C2=O)c(C)n1C | inactive
38 | CN(C)c1ccc(N=Cc2nc(-c3ccccc3)oc2OC(=O)c2cccc(Br)c2)cc1 | inactive
39 | COc1cc(/C=C2/C(C)=C(C#N)c3nc(N)c(C#N)c(C)c32)ccc1OCC(=O)O | inactive
40 | CCCn1c(=N)c(C(=O)NC2CCCC2)cc2c(=O)n3cccc(C)c3nc21 | inactive
41 | O=C(O)c1cc(-c2ccc(/C=c3\sc4nc5ccc(Br)cc5n4c3=O)o2)ccc1Cl | inactive
42 | Cc1cccc(NC(=O)c2sc3nc4c(c(-c5ccco5)c3c2N)CCC4)c1 | inactive
43 | Cn1c(O)c(C2=c3ccccc3=NC2=O)[nH]c1=S | inactive
44 | COC(=O)C1=C(C)N(c2ccc(C)c(C)c2)/C(=C/c2cccs2)C1=O | inactive
45 | C#CCN1C(=O)S/C(=C\c2ccc(-c3ccc(Cl)c(C(=O)O)c3)o2)C1=O | inactive
46 | COC(=O)c1ccc(CC(=O)c2ccc(O)cc2O)o1 | inactive
47 | CC(=O)Nc1ccc(/C=C/c2nc(-c3ccccc3O)n[nH]2)cc1 | inactive
48 | CC(=O)O[C@@H]1[C@@H](O)[C@@H](O)[C@H](Oc2c(-c3ccc(O)cc3)oc3c(CC=C(C)C)c(O)cc(O)c3c2=O)O[C@H]1C | inactive
49 | COc1cc(OC)c2ccc(=O)oc2c1C(CC(=O)N1CCCC1)c1ccc(N(C)C)cc1 (stereo not drawn) | inactive
50 | Cc1cc(/C=C(\C#N)c2nc3ccccc3[nH]2)c(C)n1C | inactive
51 | Nc1ccccc1C(=O)NNC(=O)C(=O)/C=C(\O)c1ccccc1 | inactive
52 | Cc1cccn2c(=O)c3cc(C(=O)NC(C)C)c(=N)n(Cc4ccncc4)c3nc12 | inactive
53 | O=C(O)c1ccc2c(c1)ncn2C1CCCCC1 | inactive
54 | COCCNc1nnc(SCC(=O)NNC(=O)c2ccc([N+](=O)[O-])cc2)s1 | inactive
55 | COc1ccc(/C=N/NC(=S)Nc2cccc(C(=O)O)c2)cc1 | inactive
56 | CN(N)c1ccc2c(C(F)(F)F)cc(C(F)(F)F)nc2n1 | inactive
57 | COc1ccccc1N1C(=O)S/C(=C\c2cccs2)C1=O | inactive
58 | CCOC(=O)Cc1csc(NC(=O)c2sc3nc4c(C)cc(C)cc4cc3c2N)n1 | inactive
59 | CCOc1cc(/C=N/n2c(C)nc3ccccc3c2=O)ccc1O | inactive

Row | Structure (SMILES) | activity change, negative = inhibition
60 | COc1ccc(NCc2cccnc2)cc1 | inactive
61 | COc1cccc(NC(=O)CSc2nc3ccccc3nc2N2CCOCC2)c1 | inactive
62 | Nc1c(C(=O)Nc2ccccc2)sc2nc3c(c(-c4ccco4)c12)CCC3 | inactive
63 | COc1ccc(CCn2c(=N)c(C(=O)NCC3CCCO3)cc3c(=O)n4cccc(C)c4nc32)cc1 (stereo not drawn) | inactive
64 | CC1CN(c2nc3ccccc3nc2C(C#N)C(=O)NCc2ccc3c(c2)OCO3)CC(C)O1 (stereo not drawn) | inactive
65 | COC(=O)C1CSc2[nH]c(=O)sc2C1c1ccc(O)c(OC)c1 (stereo not drawn) | inactive
66 | O=C(N/N=C/c1c(O)ccc2ccccc12)c1ccc[n+](CCO)c1 | inactive
67 | Oc1[nH]c(N=C2N=c3ccccc3=N2)c2ccccc12 | inactive
68 | COCCNc1ncnc2nc[nH]c12 | inactive
69 | COc1cc(/C=N/NC(=S)Nc2cccc(C(=O)O)c2)ccc1O | inactive
70 | Cn1ncc2c(NNC(=O)c3ccccc3Cl)ncnc21 | inactive
71 | Cc1nn(C)cc1C(=O)NNC(=S)Nc1ccccc1 | inactive
72 | CC(=Nc1ccc(C)cc1C)c1sc2ccccc2c1O | inactive
73 | O=c1[nH]c(=S)n(-c2ccc(Cl)cc2)c(O)c1C=Nc1ccc(N2CCOCC2)cc1 | inactive
74 | COc1cc(/C=N/NC(=O)CNS(=O)(=O)c2ccc(C)cc2)cc(OC)c1OC | inactive
75 | OC(CNC1CCCC1)COc1ccccc1Br (stereo not drawn) | inactive
76 | COC(=O)c1cc(O)c(O)c(O)c1 | inactive
77 | COc1ccc2ccccc2c1CNCc1ccccn1 | inactive
78 | CC1=CC2=NC(=O)/C(=C\c3ccc(-c4cccc(Cl)c4)o3)C(=N)N2O1 | inactive
79 | Nc1cnccc1C(=O)O | inactive
80 | CN1C(=O)N(C)C(c2cccc([N+](=O)[O-])c2)C2=C1CCCC2=O (stereo not drawn) | inactive
81 | Cc1cc(=O)n2[nH]c(N)c(N=Nc3ccccc3F)c2n1 | inactive
82 | COc1ccc(-n2c(C)nc3cc(C(=O)O)ccc32)cc1 | inactive
83 | Cn1c(=O)n(C)c2cc(/C=N/N=C3/NC(=O)C(CC(=O)O)S3)ccc21 (stereo not drawn) | inactive
